In publication PMC7177456, “A Peptidomimetic Fluorescent Probe to Detect the Trypsin β2 Subunit of the Human 20S Proteasome” (International Journal of Molecular Sciences, 2020):

Columns and labels:
20S proteasome [1] = experiment: Inhibitory studies: cleavage of substrate 1 in the presence of selective proteasome inhibitors; assay type: biochemical, human; details: deduced from cleavage with selective inhibitors
Source text: A black, 96-well flat-bottomed microplate (Brand GMBH, Wertheim, Germany) was used for the inhibitory studies. Two inhibitors, carfilzomib (a selective inhibitor of the β5 subunit of the 20S proteasome) and epoxomicin, were purchased from Merck (Darmstadt, Germany) and used at final concentrations of 1.15 × 10^−6 M and 5.0 × 10^−5 M, respectively. The β2 inhibitor, PR671A [20], and the β1 inhibitor, NCOO1 [21], were used at a concentration of 5 × 10^−6 M. These reagents were kindly provided by Alexei Kisselev from Dartmouth University (Dartmouth, NH, USA). The concentration of 20S proteasome was 1.07 × 10^−9 M. The buffered proteasome solution was mixed with 10 µL inhibitor solution. This mixture was incubated for 30 min at 37 °C. After this period, the substrate solution was added at a concentration of 1.34 × 10^−5 M, and the fluorescence was measured over time at 320 nm excitation and 450 nm emission wavelengths. All measurements were performed in triplicate.

20S proteasome [2] = experiment: Titration: 20S proteasome assay detection limit; assay type: biochemical, human; details: substrate 1.34 × 10^−5 M; 20S proteasome 0.05 to 2 nM; 37 °C, 30 min; 320/450 nm; triplicate
Description: A total of 160 µL assay buffer was added to each well of the 96-well plate, containing a constant substrate concentration (1.34 × 10^−5 M) (20 µL), followed by 20 µL of the 20S proteasome, with concentrations ranging from 0.05 to 2 nM. In total, seven different concentrations were used. The excitation and emission wavelengths were 320 and 450 nm, respectively. Enzymatic hydrolysis of the peptide was performed in the previously described buffer at 37 °C and continued over 30 min. A linear fragment of the curve was chosen, and the slope was calculated for each system. All measurements were performed in triplicate.

ABZ–Dap(O2(Cbz))–Dap(GO1)–Dap(O2(Cbz))–Arg–ANB–NH2 [substrate 1]
sub-site selectivity of hydrolysis (20S proteasome [1]): hydrolyzed exclusively by the β2 sub-site
20S proteasome assay detection limit (20S proteasome [2]): 10^−11 M
